Measured values reported in publication PMC5004293, “Characterization of FRM-36143 as a new γ-secretase modulator for the potential treatment of familial Alzheimer’s disease” (Alzheimer's Research & Therapy, 2016).

Key:
DHCR24 [1] = conditions: cited from earlier work
[2] = parameters: method as in PMID 24085193; conditions: animals; takes 12–14 weeks to appear; cited from earlier work
DHCR24 [3] = molecular target: T1, DHCR24 (Homo sapiens, UniProt Q15392); experiment: Desmosterol assay in HepG2 cells; type: cell-based
T1 construct: endogenous in cells; host or cells: HepG2 cells
T1 sequence (Q15392 23-516): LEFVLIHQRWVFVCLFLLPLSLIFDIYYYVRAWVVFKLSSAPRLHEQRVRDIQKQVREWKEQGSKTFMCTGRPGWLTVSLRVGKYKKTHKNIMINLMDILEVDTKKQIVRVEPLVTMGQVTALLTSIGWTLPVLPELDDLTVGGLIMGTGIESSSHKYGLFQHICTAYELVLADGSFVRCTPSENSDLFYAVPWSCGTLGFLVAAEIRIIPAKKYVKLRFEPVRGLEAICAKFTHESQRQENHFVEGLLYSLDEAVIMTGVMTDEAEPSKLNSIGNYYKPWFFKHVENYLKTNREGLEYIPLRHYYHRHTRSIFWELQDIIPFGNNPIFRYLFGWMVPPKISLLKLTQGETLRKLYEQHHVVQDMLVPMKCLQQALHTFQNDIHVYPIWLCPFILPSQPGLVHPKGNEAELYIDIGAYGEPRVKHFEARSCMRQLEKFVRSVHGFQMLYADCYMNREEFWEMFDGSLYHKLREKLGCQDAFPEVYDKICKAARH
Experimental: HepG2 cells were grown in Eagle's minimal essential medium (EMEM) containing 10 % fetal bovine serum, penicillin (50 U/mL), and streptomycin (50 ug/mL) and plated at a density of 1 million cells/well in 6-well plates for the experiment. Four to five days after plating, the cells were washed with Hank’s balanced salt solution (HBSS), and compound treatment applied for 2 h in HBSS. At the end of the treatment, cells were collected, washed with PBS, and pelleted. Sterols were extracted from the cell pellet by adding 100 μL PBS and 3 mL ethylacetate (containing an internal standard of 1 mg/mL d-cholesterol). Tubes were vortexed for 20 min and centrifuged at 2000 × g for 20 min at room temperature. The organic phase was dried under a stream of nitrogen at 40 °C and the samples reconstituted in 65 % methanol. Liquid chromatography-tandem mass spectrometry (LC-MS/MS) analysis was performed using a Shimadzu 20-series UFLC (Shimadzu, Kyoto, Japan) and an API 5500 (Applied Biosystems, Foster City, CA, USA) with a Hypersil GOLD column (100X2.1 mM; Thermo Fisher).

Aβ42 = molecular target: T2, Aβ42 (Homo sapiens, UniProt P05067); experiment: Aβ aggregation assay (thioflavin T); conditions: 10 μM peptide, 25 °C, 18 h
T2 construct: purchased AnaSpec
Experimental: Aβ peptides (AnaSpec, Fremont, CA, USA) were dissolved at a concentration of 1 mg/mL in hexafluoroisopropanol (HFIP). Peptides were then mixed at different molar ratios. HFIP was evaporated in a SpeedVac without heating for 15 min. Peptides and mixtures were kept on ice and reconstituted in 50 mM Tris–HCl, 1 mM EDTA. Peptides (final concentration: 10 μM) were added to thioflavin T (final concentration: 2.5 μM; AnaSpec) in a black 96-well plate. Aggregation was monitored on a SpectraMax M5 plate reader (Molecular Devices, Inc.) at a constant temperature of 25 °C using excitation/emission of 440 nm/480 nm. Readings were recorded in triplicate every 10 min for a period of 18 h.

Notch processing = experiment: Notch reporter assay (HeLa 6xCBF1-Luc, NotchΔE); type: cell-based, human; conditions: overnight
Experimental: The wild-type CBF1 binding element was cloned in front of the SV40 promoter-driven luciferase reporter construct of pGL3pro (Promega, Madison, WI, USA) using the following oligonucleotides: • CBF1 Fw (5’→3’): […] • CBF1 Rv (5’→3’): […]
Oligonucleotides were phosphorylated using T4 polynucleotide kinase and annealed (by heating to 90 °C and cooling to room temperature in a buffer containing 0.1 M NaCl). Plasmid pGL3pro was cleaved with BglII and dephosphorylated using alkaline phosphatase. The oligonucleotide pair was then ligated using T4 ligase with the linearized plasmid DNA. A clone containing 6 copies of the CBF1 element in front of the SV40 promoter was chosen. The 6xCBF1-RE/SV40 promoter was excised from pGL3 using XhoI and HindIII, and the fragment transferred to the pGL4.17 [luc2/Neo] vector (Promega) was opened with the same restriction enzymes.
The full length human Notch in plasmid pCMV6-XL5 (Origene, Rockville, MD, USA) was used to amplify a truncated form of Notch (NotchΔE) containing the 20-amino-acid (a.a.) signal sequence followed by 5 a.a. […]
HeLa cells stably transfected with the 6xCBF1-Luc reporter were transiently transfected with the NotchΔE construct (4 μg DNA/10^6 cells) using Lipofectamine 2000 (Thermo Fisher, Waltham, MA, USA) in 6-well plates. […] Chemiluminescence was then read on an EnVision plate reader (Perkin Elmer).

T2 sequence (P05067 672-713 limits assumed): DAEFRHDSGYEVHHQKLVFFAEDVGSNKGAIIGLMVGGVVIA

## COc1nc(/C=C/c2nc3n(n2)CCC[C@H]3c2ccccc2C(F)(F)F)ccc1-n1cnc(C)c1 [E2212]
DHCR24 [1]
  DHCR24 off-target activity: did not have this off-target activity

## COc1cc(/C=C2\CCCN([C@@H](C)c3ccc(F)cc3)C2=O)ccc1-n1cnc(C)c1 [E2012]
[2]
  Lenticular opacity: cause lenticular opacity
DHCR24 [1]
  Inhibition of DHCR24: inhibit
DHCR24 [3]; 1 μM
  Desmosterol induction (change from DMSO): ~ 60 fold
DHCR24 [3]; desmosterol accumulation, 2 h
  IC50: 0.063 µM

## Aβ42: Aβ peptide (AnaSpec) used in the aggregation assay
Aβ42
  Increase in aggregates over time (thioflavin T fluorescence): > 15 fold

## C[C@H](NC(=O)[C@@H](O)c1cc(F)cc(F)c1)C(=O)N[C@@H]1C(=O)N(C)c2ccccc2-c2ccccc21 [LY-411,575, reference compound]
Notch processing
  IC50: 0.0009 µM
